Reference: ChEMBL document CHEMBL1909046, “DrugMatrix in vitro pharmacology data”

How the values were obtained:
[1] = molecular target: T1, Alpha-1A adrenergic receptor (Rattus norvegicus, UniProt P43140); assay: DRUGMATRIX: Alpha-1A adrenergic receptor radioligand binding (ligand: prazosin); format: cell membranes, Wistar, Submaxillary gland, Membrane; details: Not Active = under 50% inhibition at 10 µM
T1 sequence (P43140 whole entry): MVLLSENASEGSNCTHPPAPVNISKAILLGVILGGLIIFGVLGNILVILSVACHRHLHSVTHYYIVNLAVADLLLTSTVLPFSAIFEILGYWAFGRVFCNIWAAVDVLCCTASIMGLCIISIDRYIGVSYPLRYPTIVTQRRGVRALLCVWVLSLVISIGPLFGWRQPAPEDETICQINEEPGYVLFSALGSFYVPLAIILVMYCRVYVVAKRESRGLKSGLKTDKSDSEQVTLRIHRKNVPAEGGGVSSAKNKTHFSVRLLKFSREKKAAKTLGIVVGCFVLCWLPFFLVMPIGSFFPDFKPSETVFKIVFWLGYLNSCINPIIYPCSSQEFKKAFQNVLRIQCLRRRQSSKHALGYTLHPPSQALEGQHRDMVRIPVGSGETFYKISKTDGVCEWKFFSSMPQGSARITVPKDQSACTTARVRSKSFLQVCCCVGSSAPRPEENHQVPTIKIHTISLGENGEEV

[2] = DRUGMATRIX: Atrial Natriuretic Factor (ANF) radioligand binding (ligand: [125I] ANF (rat)); format: cell membranes, Cavia porcellus, Dunkin-Hartley, Adrenal gland, Membrane; details: Not Active = under 50% inhibition at 10 µM
[3] = molecular target: T2, Endothelin-1 receptor (Homo sapiens, UniProt P25101); format: cell membranes, CHO-K1, Membrane; details: cho-k1; further: in other assays of this panel Not Active means under 50% inhibition at 10 µM
T2 sequence (P25101 whole entry): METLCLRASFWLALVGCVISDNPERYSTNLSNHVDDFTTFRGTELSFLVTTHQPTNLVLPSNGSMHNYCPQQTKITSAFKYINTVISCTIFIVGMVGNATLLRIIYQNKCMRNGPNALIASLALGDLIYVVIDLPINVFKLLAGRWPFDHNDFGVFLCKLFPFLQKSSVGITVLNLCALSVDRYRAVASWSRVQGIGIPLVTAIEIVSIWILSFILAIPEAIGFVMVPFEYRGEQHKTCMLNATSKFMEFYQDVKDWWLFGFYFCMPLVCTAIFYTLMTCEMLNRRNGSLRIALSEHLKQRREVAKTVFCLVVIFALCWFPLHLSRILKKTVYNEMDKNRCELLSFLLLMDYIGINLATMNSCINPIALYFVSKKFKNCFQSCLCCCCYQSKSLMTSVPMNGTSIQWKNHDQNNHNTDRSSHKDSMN

[4] = molecular target: Cytochrome P450 3A4 (Homo sapiens, UniProt P08684); details: bti-tn-5b1-4; further: in other assays of this panel Not Active means under 50% inhibition at 10 µM
Cytochrome P450 3A4, sequence (P08684 whole entry): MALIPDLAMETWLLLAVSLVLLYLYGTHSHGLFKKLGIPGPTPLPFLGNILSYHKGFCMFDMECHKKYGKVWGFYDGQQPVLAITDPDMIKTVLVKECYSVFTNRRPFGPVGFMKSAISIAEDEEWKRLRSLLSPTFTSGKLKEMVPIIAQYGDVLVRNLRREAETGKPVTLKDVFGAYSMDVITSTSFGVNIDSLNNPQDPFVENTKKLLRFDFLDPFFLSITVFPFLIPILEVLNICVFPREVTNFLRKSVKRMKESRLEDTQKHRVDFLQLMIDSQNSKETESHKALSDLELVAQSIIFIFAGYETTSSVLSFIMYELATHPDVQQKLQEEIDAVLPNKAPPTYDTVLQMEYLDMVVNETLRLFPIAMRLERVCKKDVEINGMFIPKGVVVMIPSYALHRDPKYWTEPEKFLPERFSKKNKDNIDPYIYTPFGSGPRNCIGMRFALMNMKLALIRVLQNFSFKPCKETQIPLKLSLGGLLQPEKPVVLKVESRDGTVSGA

[5] = molecular target: Sodium-dependent dopamine transporter (Homo sapiens, UniProt Q01959); assay: DRUGMATRIX: Dopamine Transporter radioligand binding (ligand: [125I] RTI-55); format: cell membranes, CHO-K1, Membrane; details: Not Active = under 50% inhibition at 10 µM
Sodium-dependent dopamine transporter, sequence (Q01959 whole entry): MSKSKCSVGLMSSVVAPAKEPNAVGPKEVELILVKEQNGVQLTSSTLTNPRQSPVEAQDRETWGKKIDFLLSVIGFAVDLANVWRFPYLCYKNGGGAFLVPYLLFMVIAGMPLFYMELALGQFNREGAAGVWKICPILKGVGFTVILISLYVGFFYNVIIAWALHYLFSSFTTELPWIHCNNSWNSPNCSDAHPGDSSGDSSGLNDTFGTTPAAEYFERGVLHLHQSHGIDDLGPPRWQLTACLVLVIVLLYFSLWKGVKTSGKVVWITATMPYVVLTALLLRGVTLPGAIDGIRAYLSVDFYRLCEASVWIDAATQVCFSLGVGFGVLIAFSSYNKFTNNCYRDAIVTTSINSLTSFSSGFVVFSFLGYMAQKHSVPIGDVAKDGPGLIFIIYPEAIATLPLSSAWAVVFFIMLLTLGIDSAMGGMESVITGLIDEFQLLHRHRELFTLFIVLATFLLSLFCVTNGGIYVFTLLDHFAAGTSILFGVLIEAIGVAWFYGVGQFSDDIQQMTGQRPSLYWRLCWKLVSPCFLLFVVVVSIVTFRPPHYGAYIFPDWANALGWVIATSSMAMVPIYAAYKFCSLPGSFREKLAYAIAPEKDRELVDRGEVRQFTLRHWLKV

[6] = DRUGMATRIX: Phosphodiesterase PDE4 enzyme inhibition (substrate: [3H]cAMP + cAMP); details: u-937; Not Active = under 50% inhibition at 10 µM

Structure (SMILES) | IC50 [1] | IC50 [2] | Ki [2] | IC50 [3] | IC50 [4] | Ki [4] | IC50 ([5]; cho-k1) | IC50 [6] | Ki [6] | IC50 ([5]; read-out: IC50) [nM] | Ki ([5]; read-out: Ki) [nM]
CC[C@@H](CO)NC(=O)[C@@H]1C=C2c3cccc4[nH]cc(c34)C[C@H]2N(C)C1 [METHYLERGONOVINE] | Not Active | Not Active | Not Active | Not Active | Not Active | Not Active | Not Active | Not Active | Not Active | – | –
Cc1cccc(N(C)C(=S)Oc2ccc3ccccc3c2)c1 [TOLNAFTATE] | Not Active | Not Active | Not Active | Not Active | Not Active | Not Active | Not Active | Not Active | Not Active | – | –
Cc1oncc1C(=O)Nc1ccc(C(F)(F)F)cc1 [LEFLUNOMIDE] | Not Active | Not Active | Not Active | Not Active | Not Active | Not Active | – | Not Active | Not Active | 2880 | 2290
Cc1c(C)c2c(c(C)c1O)CCC(C)(COc1ccc(CC3SC(=O)NC3=O)cc1)O2 (configuration not stated) [TROGLITAZONE] | Not Active | Not Active | Not Active | Not Active | Not Active | Not Active | Not Active | Not Active | Not Active | – | –
CCCOc1ccccc1-c1nc2nn[nH]c2c(=O)[nH]1 [ZAPRINAST] | Not Active | Not Active | Not Active | Not Active | Not Active | Not Active | Not Active | Not Active | Not Active | – | –
CC[C@]1(O)C[C@H]2CN(CCc3c([nH]c4ccccc34)[C@@](C(=O)OC)(c3cc4c(cc3OC)N(C=O)[C@H]3[C@@](O)(C(=O)OC)[C@H](OC(C)=O)[C@]5(CC)C=CCN6CC[C@]43[C@@H]65)C2)C1 [VINCRISTINE] | Not Active | Not Active | Not Active | Not Active | Not Active | Not Active | Not Active | Not Active | Not Active | – | –
COc1c(C)c2c(c(O)c1C/C=C(\C)CCC(=O)O)C(=O)OC2 [MYCOPHENOLIC ACID] | Not Active | Not Active | Not Active | Not Active | Not Active | Not Active | Not Active | Not Active | Not Active | – | –
CSc1ccc(/C=C2/C(C)=C(CC(=O)O)c3cc(F)ccc32)cc1 [SULINDAC SULFIDE] | Not Active | Not Active | Not Active | Not Active | Not Active | Not Active | Not Active | Not Active | Not Active | – | –
O=NN(CCCl)C(=O)NC1CCCCC1 [LOMUSTINE] | Not Active | Not Active | Not Active | Not Active | Not Active | Not Active | Not Active | Not Active | Not Active | – | –
